Data published in PubChem BioAssay AID1963981 (Molecular Pharmacology Branch, DTP, NCI, 2024).

Tested on: 354836-022-R-J1-PDC multicell spheroid viability
Experiment: Anticancer human tumor 354836-022-R-J1-PDC patient-derived head and neck squamous cell carcinoma cell line growth inhibition [PI3K]
Conditions: for IC50: curve of first compound; for viability, T/C: stronger effect = lower value
Outline: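 Combination activity was assessed by viability in multicellular tumor spheroids carrying HUVEC and MSC components. Agents were tested with PI3K inhibitors from a Cmax-based top dose (or 10 microM) downward in half-log increments.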

[1] = second compound 0.0316 µM, first compound 0.000316 µM
[2] = second compound 0.0316 µM, first compound 0.001 µM
[3] = second compound 0.0316 µM, first compound 0.00316 µM
[4] = second compound 0.0316 µM, first compound 0.01 µM
[5] = second compound 0.0316 µM, first compound 0.0316 µM
[6] = second compound 0.0316 µM, first compound 0.1 µM
[7] = second compound 0.1 µM, first compound 0.000316 µM
[8] = second compound 0.1 µM, first compound 0.001 µM
[9] = second compound 0.1 µM, first compound 0.00316 µM
[10] = second compound 0.1 µM, first compound 0.01 µM
[11] = second compound 0.1 µM, first compound 0.0316 µM
[12] = second compound 0.1 µM, first compound 0.1 µM
[13] = second compound 0.316 µM, first compound 0.000316 µM
[14] = second compound 0.316 µM, first compound 0.001 µM
[15] = second compound 0.316 µM, first compound 0.00316 µM
[16] = second compound 0.316 µM, first compound 0.01 µM
[17] = second compound 0.316 µM, first compound 0.0316 µM
[18] = second compound 0.316 µM, first compound 0.1 µM
[19] = second compound 1 µM, first compound 0.000316 µM
[20] = second compound 1 µM, first compound 0.001 µM
[21] = second compound 1 µM, first compound 0.00316 µM
[22] = second compound 1 µM, first compound 0.01 µM
[23] = second compound 1 µM, first compound 0.0316 µM
[24] = second compound 1 µM, first compound 0.1 µM
[25] = second compound 3.16 µM, first compound 0.000316 µM
[26] = second compound 3.16 µM, first compound 0.001 µM
[27] = second compound 3.16 µM, first compound 0.00316 µM
[28] = second compound 3.16 µM, first compound 0.01 µM
[29] = second compound 3.16 µM, first compound 0.0316 µM
[30] = second compound 3.16 µM, first compound 0.1 µM
[31] = second compound 10 µM, first compound 0.000316 µM
[32] = second compound 10 µM, first compound 0.001 µM
[33] = second compound 10 µM, first compound 0.00316 µM
[34] = second compound 10 µM, first compound 0.01 µM
[35] = second compound 10 µM, first compound 0.0316 µM
[36] = second compound 10 µM, first compound 0.1 µM
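Note: spheroids exposed to agents for seven days before the viability read.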

SMILES: CC(=O)c1c(C)c2cnc(Nc3ccc(N4CCNCC4)cn3)nc2n(C2CCCC2)c1=O + CC(Nc1ncnc2nc[nH]c12)c1cc2cccc(Cl)c2c(=O)n1-c1ccccc1
- IC50 (second compound 0.0316 µM): > 0.1 µM
- IC50 (second compound 0.1 µM): > 0.1 µM
- IC50 (second compound 0.316 µM): > 0.1 µM
- IC50 (second compound 1 µM): > 0.1 µM
- IC50 (second compound 3.16 µM): > 0.1 µM
- IC50 (second compound 10 µM): > 0.1 µM
- viability, T/C [1]: 96.8%
- viability, T/C [2]: 110%
- viability, T/C [3]: 108%
- viability, T/C [4]: 103%
- viability, T/C [5]: 97.7%
- viability, T/C [6]: 99.5%
- viability, T/C [7]: 89.4%
- viability, T/C [8]: 99.3%
- viability, T/C [9]: 94.9%
- viability, T/C [10]: 91.5%
- viability, T/C [11]: 105%
- viability, T/C [12]: 101%
- viability, T/C [13]: 90%
- viability, T/C [14]: 98.8%
- viability, T/C [15]: 100%
- viability, T/C [16]: 100%
- viability, T/C [17]: 111%
- viability, T/C [18]: 113%
- viability, T/C [19]: 82.2%
- viability, T/C [20]: 96.7%
- viability, T/C [21]: 97.2%
- viability, T/C [22]: 110%
- viability, T/C [23]: 96.8%
- viability, T/C [24]: 91.6%
- viability, T/C [25]: 108%
- viability, T/C [26]: 107%
- viability, T/C [27]: 98.5%
- viability, T/C [28]: 104%
- viability, T/C [29]: 88.3%
- viability, T/C [30]: 90.2%
- viability, T/C [31]: 89.8%
- viability, T/C [32]: 95.2%
- viability, T/C [33]: 91.1%
- viability, T/C [34]: 109%
- viability, T/C [35]: 98.8%
- viability, T/C [36]: 91.5%

SMILES: CC(C)n1nc(-c2ccc3oc(N)nc3c2)c2c(N)ncnc21 + CC(Nc1ncnc2nc[nH]c12)c1cc2cccc(Cl)c2c(=O)n1-c1ccccc1
- IC50 (second compound 0.0316 µM): 0.0155 µM
- IC50 (second compound 0.1 µM): 0.0217 µM
- IC50 (second compound 0.316 µM): 0.0164 µM
- IC50 (second compound 1 µM): 0.0155 µM
- IC50 (second compound 3.16 µM): 0.0193 µM
- IC50 (second compound 10 µM): 0.0168 µM
- viability, T/C [1]: 88.2%
- viability, T/C [2]: 96.5%
- viability, T/C [3]: 79.9%
- viability, T/C [4]: 57%
- viability, T/C [5]: 35.3%
- viability, T/C [6]: 5.53%
- viability, T/C [7]: 97.8%
- viability, T/C [8]: 102%
- viability, T/C [9]: 81.1%
- viability, T/C [10]: 86.3%
- viability, T/C [11]: 32.8%
- viability, T/C [12]: 4.44%
- viability, T/C [13]: 92.6%
- viability, T/C [14]: 101%
- viability, T/C [15]: 80.7%
- viability, T/C [16]: 61.2%
- viability, T/C [17]: 34.9%
- viability, T/C [18]: 6.09%
- viability, T/C [19]: 113%
- viability, T/C [20]: 98.2%
- viability, T/C [21]: 92.7%
- viability, T/C [22]: 59.5%
- viability, T/C [23]: 31.6%
- viability, T/C [24]: 5.81%
- viability, T/C [25]: 105%
- viability, T/C [26]: 99%
- viability, T/C [27]: 73.1%
- viability, T/C [28]: 68.1%
- viability, T/C [29]: 40.9%
- viability, T/C [30]: 5.66%
- viability, T/C [31]: 95.5%
- viability, T/C [32]: 101%
- viability, T/C [33]: 89.2%
- viability, T/C [34]: 62.7%
- viability, T/C [35]: 33.3%
- viability, T/C [36]: 6.25%

SMILES: CCCS(=O)(=O)Nc1ccc(F)c(C(=O)c2c[nH]c3ncc(-c4ccc(Cl)cc4)cc23)c1F + CC(Nc1ncnc2nc[nH]c12)c1cc2cccc(Cl)c2c(=O)n1-c1ccccc1
- IC50 (second compound 0.0316 µM): 5.95 µM
- IC50 (second compound 0.1 µM): 5.79 µM
- IC50 (second compound 0.316 µM): 6.71 µM
- IC50 (second compound 1 µM): 5.5 µM
- IC50 (second compound 3.16 µM): 6.29 µM
- IC50 (second compound 10 µM): 5.98 µM
- viability, T/C [5]: 94.8%
- viability, T/C [6]: 108%
- viability, T/C (second compound 0.0316 µM, first compound 0.316 µM): 98.4%
- viability, T/C (second compound 0.0316 µM, first compound 1 µM): 107%
- viability, T/C (second compound 0.0316 µM, first compound 3.16 µM): 88.8%
- viability, T/C (second compound 0.0316 µM, first compound 10 µM): 17.8%
- viability, T/C [11]: 99.8%
- viability, T/C [12]: 99.8%
- viability, T/C (second compound 0.1 µM, first compound 0.316 µM): 109%
- viability, T/C (second compound 0.1 µM, first compound 1 µM): 105%
- viability, T/C (second compound 0.1 µM, first compound 3.16 µM): 83.8%
- viability, T/C (second compound 0.1 µM, first compound 10 µM): 19.7%
- viability, T/C [17]: 98%
- viability, T/C [18]: 106%
- viability, T/C (second compound 0.316 µM, first compound 0.316 µM): 125%
- viability, T/C (second compound 0.316 µM, first compound 1 µM): 104%
- viability, T/C (second compound 0.316 µM, first compound 3.16 µM): 110%
- viability, T/C (second compound 0.316 µM, first compound 10 µM): 18.9%
- viability, T/C [23]: 103%
- viability, T/C [24]: 93.9%
- viability, T/C (second compound 1 µM, first compound 0.316 µM): 111%
- viability, T/C (second compound 1 µM, first compound 1 µM): 94.5%
- viability, T/C (second compound 1 µM, first compound 3.16 µM): 81.1%
- viability, T/C (second compound 1 µM, first compound 10 µM): 16.6%
- viability, T/C [29]: 114%
- viability, T/C [30]: 111%
- viability, T/C (second compound 3.16 µM, first compound 0.316 µM): 105%
- viability, T/C (second compound 3.16 µM, first compound 1 µM): 106%
- viability, T/C (second compound 3.16 µM, first compound 3.16 µM): 92.9%
- viability, T/C (second compound 3.16 µM, first compound 10 µM): 21.1%
- viability, T/C [35]: 89.7%
- viability, T/C [36]: 96%
- viability, T/C (second compound 10 µM, first compound 0.316 µM): 94.2%
- viability, T/C (second compound 10 µM, first compound 1 µM): 88.7%
- viability, T/C (second compound 10 µM, first compound 3.16 µM): 92.6%
- viability, T/C (second compound 10 µM, first compound 10 µM): 16%
